Experimental data taken from PMC3289519 (Bioorganic & medicinal chemistry letters, 2012).

Key:
[1] = system: Toxo/CpIMPDH, strain that depends on CpIMPDH; format: cell-based, Toxoplasma gondii; details: in words
human IMPDH2 = details: human IMPDH2, no detectable activity; cited from earlier work
human IMPDH1 = details: human IMPDH1, no detectable activity; cited from earlier work
C. parvum = details: anticryptosporidial activity, literature values; cited from earlier work

Row | SMILES | activity against T. gondii/CpIMPDH [1] | other results
1 | O=C(Cn1c(-c2ccccn2)nc2ccccc21)Nc1ccc2ccccc2c1 [Compound C91] | sub-micromolar | –
2 | COc1ccc(NC(=O)Cn2c(-c3cscn3)nc3ccccc32)cc1 [C] | – | IC50 (human IMPDH2): > 50 µM; IC50 (human IMPDH1): > 50 µM
3 | NC[C@@H]1O[C@H](O[C@H]2[C@@H](O)[C@H](O[C@@H]3[C@@H](O)[C@H](N)C[C@H](N)[C@H]3O[C@H]3O[C@H](CO)[C@@H](O)[C@H](O)[C@H]3N)O[C@@H]2CO)[C@H](N)[C@@H](O)[C@@H]1O [paromomycin] | – | EC50 (C. parvum): 65 to 130 µM
4 | O=C(Cn1c(-c2nccs2)nc2ccccc21)Nc1ccc2ccccc2c1 [Compound C97] | sub-micromolar | –
5 | O=C(Cn1c(-c2nccs2)nc2ccccc21)Nc1ccc(Cl)c(Cl)c1 [Compound C84] | sub-micromolar | –
6 | O=C(Cn1c(-c2nccs2)nc2ccccc21)Nc1ccc(Br)cc1 [Compound C64] | sub-micromolar | –
7 | O=C(Cn1c(-c2cscn2)nc2ccccc21)Nc1ccc2ccccc2c1 [Compound C90] | sub-micromolar | –
